# Earlier results, collected in patent US6417229B1, “α-sulfonylamino hydroxamic acid inhibitors of matrix metalloproteinases for the treatment of peripheral or central nervous system disorders” (Pfizer Inc, priority 1999, dated 2002).
# How the values were obtained:
# [1] = tested on: Experimental Autoimmune Neuritis (EAN); settings: Redford et al. 1997
# [2] = tested on: Experimental Autoimmune Encephelomyelitis (EAE); settings: mice with EAE; Gijbels 1994
# [3] = tested on: MMP-9 induction by Aβ; settings: rat microglia; Gottschall 1996
compound,measurement,setting,value
C=CC[C@H](C(=O)NO)[C@@H](CC(C)C)C(=O)N[C@@H](Cc1ccccc1)C(=O)NC [BB-1101],effect on EAN,[1],attenuates Experimental Autoimmune Neuritis (EAN)
CNC(=O)[C@H](Cc1c[nH]c2ccccc12)NC(=O)[C@@H](CC(=O)NO)CC(C)C [GM6001],effect on EAE,[2],"suppress the development of, or reverse established, EAE"
COc1ccc2c(c1)c(CC(=O)O)c(C)n2C(=O)c1ccc(Cl)cc1 [indomethacin],inhibition of MMP-9 induction by Aβ,[3],can be inhibited
